US9120789B2, “1-(5-tert-butyl-2-phenyl-2H-pyrazol-3-yl)-3-[2-fluoro-4-(1-methyl-2-oxo-2,3-dihydro-1H-imidazo[4,5-b]pyridin-7-yloxy)-phenyl]-urea and related compounds and their use in therapy” (CANCER RESEARCH TECHNOLOGY LIMITED, priority 2010, dated 2015)

Test system: A375M human melanoma cells (mutant BRAF) xenograft
Assay: Xenograft study, mutant BRAF A375
Format: in vivo, mice
Conditions: for Factor of tumour volume reduction as compared to the control: over the timescale of the study
Method: Biological Methods—Xenograft Studies
SW620 human colorectal carcinoma cells (mutant RAS, 7×10^7) or A375M human melanoma cells (mutant BRAF, 10^7) were inoculated sub-cutaneously in suspension (0.2 mL) into the right flank of female Crl:CD1-Foxn1nu athymic mice. Groups were assigned to treatment following stratified allocation of tumour volumes. Treatment with test compound began between days 11-14 post-cell administration. For gavage, a suspension (DMSO:water, 1:19, v/v at 10 m L/kg) was administered. Control animals received a similar dosage of vehicle (DMSO:water, 1:19, v/v). Treatment with test compound was continued once daily for 24 doses.

Row | SMILES | Effect on tumour volume as compared to the control (in words) | Factor of tumour volume reduction as compared to the control
1 | Cc1ccc(-n2nc(C(C)(C)C)cc2NC(=O)Nc2ccc(Oc3ccnc4[nH]c(=O)n(C)c34)cc2)cc1 [XX-02, 1-(1-N-p-tolyl-3-tert-butyl-pyrazol-5-yl)-3-(4-(2-oxo-2,3-dihydro-1-N-methyl-1H-imidazo[4,5-b]pyridin-7-yl-oxy)phenyl)urea] | at least to some degree effective | 
2 | Cn1c(=O)[nH]c2nccc(Oc3ccc(NC(=O)Nc4cc(C(C)(C)C)nn4-c4ccccc4)c(F)c3)c21 [AA-01, 1-(3-Tert-butyl-1-phenyl-1H-pyrazol-5-yl)-3-(2-fluoro-4-(1-N-methyl-2-oxo-2,3-dihydro-1H-imidazo[4,5-b]pyridin-7-yloxy)phenyl)urea] |  | about 2.5
3 | Cc1ccc(-n2nc(C(C)(C)C)cc2NC(=O)Nc2ccc(Oc3ccnc4[nH]c(=O)n(C)c34)c3ccccc23)cc1 [BB-02, 1-(1-N-p-tolyl-3-tert-butyl-pyrazol-5-yl)-3-(4-(2-oxo-2,3-dihydro-1-N-methyl-1H-imidazo[4,5-b]pyridin-7-yl-oxy)naphthalen-1-yl)urea] |  | about 1.5
